Results on six molecules are retold here after US20060099712A1, “Correlation of anti-cancer activity of dyes with redox potentials” (Eastman Kodak Company, priority 2004, published 2006).

Like-named read-outs stand apart in the source and are kept apart here. Bounds are passed on as bounds.

Data set [1] deals with CX-1 Human Colon Carcinoma. The data set is described as follows: Clonogenic dye screening assay, CX-1 cells (IC50). It counts as cell-based. To be noted: for CV/CX (selectivity, kill ratio): ratio of IC50 in normal CV-1 line to IC50 in carcinoma CX-1 line; for IC50: Homo sapiens; for Selectivity: Table 1, cell line not given, values equal CV/CX of Table II. The gist of the method: (§1)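 Cells seeded 16-30 h ahead (2000 CX-1 or 1000 CV-1 per well), exposed to serially diluted dyes for 3 h at 37 °C, rinsed three times, then grown into colonies. Eight-point curves spanned 0.32-0.0015 μg/mL (CX-1) and 3.2-0.025 μg/mL (CV-1). IC50 is the concentration killing 50% of cells.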

The nature of another data set: In vivo tests (toxicity). The text has this: Benzothiazole is by far the next best.
Data set [2] has as its system CV-1 Normal Monkey Kidney Epithelial. The data set is described as follows: Clonogenic dye screening assay, CV-1 cells (IC50). The format is cell-based, African green monkey. To be noted: Primates. The method in brief:
as §1

For data set [3] the following is noted: Table XXII; chain substituent steric parameter; cited from earlier work.
For data set [4] the following is noted: Table XXII; chain substituent hydrophobicity parameter; cited from earlier work.
The conditions of data set [5]: Table XXII; chain substituent electronic parameter; cited from earlier work.
The conditions of data set [6]: Table XXII; chain substituent steric parameter; cited from earlier work. This is another data set of the same source.
Data set [7] in a line: Dye solubility (water, 5% dextrose/water). As to conditions: among compounds with enhanced activity. The format is physicochemical. The text has this:
Dye solubility is also a factor, since compounds having low water solubility are difficult or impossible to include in in vivo testing.
S13 is one of the simplest cyanine dye structures possible (in this nomenclature the S refers to the sulfur, the 1 indicates one carbon on the nitrogen and 3 indicates a 3 methine chain). […] A synthetic challenge will be to enhance the activity/selectivity of this dye and retain its good water solubility. [drawing 23]

A short description of data set [8]: Clonogenic dye screening assay, CX-1 cells (IC50). The format is cell-based, human. As to conditions: Homo sapiens, CX-1, Table XII column 5; unit from method; read-out: CV (Table XII). The gist of the method:
as §1

A short description of data set [9]: Octanol/water partition (log P). To be noted: shaking with water and octanol. The format is physicochemical. The text has this:
Octanol/water partition coefficients (log P) are usually used as a model of drug transport between water and the biophase, as disclosed in A. Leo, C. Hansch, Substituent Constants—for Correlation Analysis in Chemistry. and' Biology, Wiley, New York, 1979 and A. Leo, C. Hansch, D. Elkins, Chem. Rev., 6, 525 (1971), both incorporated herein by reference. Often partition coefficients can be measured simply by shaking the compound with a mixture of water and octanol and determining the concentration of the solute in either solvent. P is equal to the concentration of the solute in octanol divided by its concentration in water. In general, it is possible to measure log P values ranging from −4.0 to 6.0. The situation is also more complicated when the species is charged because of the effects of ion pairing.

Setting [10] is: CX-1, 3 hrs treatment, colonies after 7-10 days, unit from method, read-out: CX (IC50 in the CX-1 cell line).
The mark [11] stands for this setting: CV-1, 3 hrs treatment, colonies after 7-10 days, unit from method, read-out: CV (IC50 in the CV-1 cell line).

For Indole, the “CV/CX (selectivity, kill ratio)” value in [1] was “highest selectivity”. In addition, the toxicity in vivo result in “In vivo tests (toxicity)” is “high toxicity”.
With `CN1/C(=C/C=C/c2sc3ccccc3[n+]2C)Sc2ccccc21` [Dye D-100], the IC50 in data set [1] (setting [10]) was found to be 0.005 µg/mL. Further, in data set [1] (CX-1, Table XX, thiacarbocyanine nitrogen substituents, CX-1 cells, read-out: CX), the IC50 is less than 0.005 µg/mL. In addition, in [1], the Selectivity was 100 and the “CV/CX (selectivity, kill ratio)” value is on record as 100. The CV/CX in data set [1] (Table XX, ratio given a value of 1 where dye inactive) is listed as 100.0. For the same molecule, the IC50 in data set [2] (setting [11]) turned out to be 0.5 µg/mL. Moreover, the IC50 in [2] (CV-1, Table XX, thiacarbocyanine nitrogen substituents, CV-1 cells, read-out: CV) turned out to be 0.5 µg/mL. Moreover, in data set [3], the MR was 0.103. Also, the π in data set [4] is reported as 0.00. Moreover, in data set [5], the F is recorded as 0.00, the R was 0.00, the σm was 0.00 and the σp was 0.00. In addition, in data set [6], the B1 was 1.00 and the L is given as 2.06. For the same molecule, the solubility entry in data set [7] was “most desirably soluble”.
`CCN1/C(=C/C=C/c2sc3ccccc3[n+]2CC)Oc2ccccc21` [Dye D-104]: the IC50 in data set [8] was 0.005 µg/mL; in data set [1] (setting [10]) it was 0.005 µg/mL; in data set [1] (CX-1, Table XVI, unsymmetrical dyes, CX-1 cells, read-out: CX) it was 0.005 µg/mL; in [2] (setting [11]), 1 µg/mL; in data set [2] (CV-1, Table XVI, unsymmetrical dyes, CV-1 cells, read-out: CV), 1 µg/mL. The molecule further showed a Selectivity in data set [1] of 200. For the same molecule, the CV/CX in [1] (Table XVI, selectivity ratio of IC50 values) is on record as 200.0. Besides, the “CV/CX (selectivity, kill ratio)” value in data set [1] worked out at 200.
For the molecule `CCN1/C(=C/C=C/c2sc3cc4c(cc3[n+]2CC)OCO4)Oc2ccccc21` [Dye D-163], the IC50 in data set [8] is less than 0.005 µg/mL; in data set [1] (setting [10]), 0.3 µg/mL; in [2] (setting [11]), 0.3 µg/mL. Moreover, the “CV/CX (selectivity, kill ratio)” value in data set [1] is reported as greater than 60.0.
For the molecule `CCN1/C(=C/C=C/c2oc3ccc(-c4ccccc4)cc3[n+]2CC)Sc2ccccc21` [Dye D-131], the IC50 in [8] is less than 0.005 µg/mL; in [1] (setting [10]), less than 0.005 µg/mL; in data set [2] (setting [11]), 0.3 µg/mL.
As to `CCN1C(=CC=Cc2sc3ccccc3[n+]2CC)Sc2ccccc21.[I-]` [3,3′-diethylthiacarbocyanine iodide], the octanol/water partition entry in data set [9] is “partition completely into the octanol phase”.
